Assay results reported in patent US20090042962A1, “Therapeutic Agent for Keratoconjunctival Disorder” (SANTEN PHARMACEUTICAL CO., LTD., priority 2005, published 2009).

Test system: corneal disorder models
Test: Test for therapeutic effect on corneal damage (exorbital lacrimal gland removal, fluorescein staining score)
Format: in vivo, male SD rats
Conditions: for Improvement ratio (%): instilled 6 times a day for 14 days; for Mean value of scores: instilled into both eyes 6 times a day for 14 days, fluorescein staining total score
Description: Using male SD rats, corneal disorder models were produced in accordance with the method of Fujihara et al. (Invest. Opthalmol. Vis. Sci. 42 (1): 96-100 (2001)) After the production of the corneal disorder models, the corneal damage score was evaluated in accordance with the method of Murakami et al. (Journal of the eye 21 (1): 87-90 (2004)), and the improvement ratio of a corneal damage after instillation was obtained.
Male SD rats were systemically anesthetized by an administration of Nembutal. Subsequently the exorbital lacrimal gland of each rat was removed and a corneal damage was induced over a period of 2 months.
Then, 4′-[[4-methyl-6-(1-methylbenzimidazol-2-yl)-2-n-propylbenzimidazol-1-yl]methyl]-1,1′-biphenyl-2-carboxylic acid (hereinafter referred to as “Compound A”), 2-n-butyl-4-spirocyclopentane-1-[[2′-(1H-tetrazol-5-yl)-1,1′-biphenyl-4-yl]methyl]-2-imidazolin-5-one (hereinafter referred to as “Compound B”), 2-butyl-4-chloro-5-hydroxymethyl-1-[[2′-(1H-tetrazol-5-yl)-1,1′-biphenyl-4-yl]methyl]imidazole monopotassium salt (hereinafter referred to as “Compound C”), 2-ethoxy-1-[[2′-(1H-tetrazol-5-yl)-1,1′-biphenyl-4-yl]methyl]-1H-benzimidazol-7-carboxylic acid (hereinafter referred to as “Compound D”) […] N-[[2′-(1H-tetrazol-5-yl)-1,1′-biphenyl-4-yl]methyl]-N-valeryl-L-valine (hereinafter referred to as “Compound E”), or 4-(1-hydroxy-1-methylethyl)-2-n-propyl-1-[[2′-(1H-tetrazol-5-yl)-1,1′-biphenyl-4-yl]methyl]imidazol-5-carboxylic acid monohydrate (hereinafter referred to as “Compound F”) was administered to the rats as follows.
A physiological saline solution containing Compound A (0.005%) was instilled into both eyes 6 times a day for 14 days (one group consisting of 4 animals, 8 eyes).
A physiological saline solution containing Compound B (0.04%) was instilled into both eyes 6 times a day for 14 days (one group consisting of 4 animals, 8 eyes).
A physiological saline solution containing Compound C (0.5%) was instilled into both eyes 6 times a day for 14 days (one group consisting of 3 animals, 6 eyes).
A phosphate-buffered saline solution containing Compound D (0.004%) was instilled into both eyes 6 times a day for 14 days (one group consisting of 4 animals, 8 eyes).
A phosphate-buffered saline solution containing Compound E (0.004%) was instilled into both eyes 6 times a day for 14 days (one group consisting of 4 animals, 8 eyes).
A phosphate-buffered saline solution containing Compound F (0.004%) was instilled into both eyes 6 times a day for 14 days (one group consisting of 4 animals, 8 eyes).
In a control group, physiological saline or phosphate-buffered saline was instilled into both eyes 6 times a day for 14 days (one group consisting of 4 animals, 8 eyes).
Fourteen days after the start of instillation, the damaged parts of the cornea were stained with fluorescein. For each of the upper, middle and lower parts of the cornea, the degree of fluorescein staining was evaluated by scoring according to the criteria shown below and the improvement ratio of corneal damage was calculated from the mean value of the total scores for each of the above-mentioned parts. Also for normal eyes, the mean value of the total scores for each of the above-mentioned parts was obtained.
0: No punctate staining 1: Scattered staining (punctate staining being separated) 2: Moderate staining (a part of punctate staining being adjacent) 3: Heavy staining (punctate staining being barely separated)
Incidentally, the mean value of the scores is a mean of those of 8 cases or 6 cases, respectively.
Improvement ratio (%)={(control)−(the present compound)}/damage degree×100 Damage degree=(control)−(normal eye)

[1] = 0.004% in phosphate-buffered saline, vs phosphate-buffered saline control, Table 2
[2] = 0.004% in phosphate-buffered saline, Table 2 (normal eye 2.5, control 4.6)

## CCCc1nc2c(C)cc(-c3nc4ccccc4n3C)cc2n1Cc1ccc(-c2ccccc2C(=O)O)cc1 [Compound A, 4′-[[4-methyl-6-(1-methylbenzimidazol-2-yl)-2-n-propylbenzimidazol-1-yl]methyl]-1,1′-biphenyl-2-carboxylic acid]
0.005% in physiological saline, vs physiological saline control, Table 1
  Improvement ratio (%): 62.5%
0.005% in physiological saline, Table 1 (normal eye 3.3, control 4.9)
  Mean value of scores: 3.9

## CCCCC1=NC2(CCCC2)C(=O)N1Cc1ccc(-c2ccccc2-c2nnn[nH]2)cc1 [Compound B, 2-n-butyl-4-spirocyclopentane-1-[[2′-(1H-tetrazol-5-yl)-1,1′-biphenyl-4-yl]methyl]-2-imidazolin-5-one]
0.04% in physiological saline, vs physiological saline control, Table 1
  Improvement ratio (%): 62.5%
0.04% in physiological saline, Table 1 (normal eye 3.3, control 4.9)
  Mean value of scores: 3.9

## CCCCc1nc(Cl)c(CO)n1Cc1ccc(-c2ccccc2-c2nnn[nH]2)cc1.[K] [Compound C, 2-butyl-4-chloro-5-hydroxymethyl-1-[[2′-(1H-tetrazol-5-yl)-1,1′-biphenyl-4-yl]methyl]imidazole monopotassium salt]
0.5% in physiological saline, vs physiological saline control, Table 1
  Improvement ratio (%): 87.5%
0.5% in physiological saline, Table 1 (normal eye 3.3, control 4.9)
  Mean value of scores: 3.5

## CCOc1nc2cccc(C(=O)O)c2n1Cc1ccc(-c2ccccc2-c2nnn[nH]2)cc1 [Compound D, 2-ethoxy-1-[[2′-(1H-tetrazol-5-yl)-1,1′-biphenyl-4-yl]methyl]-1H-benzimidazol-7-carboxylic acid]
[1]
  Improvement ratio (%): 47.6%
[2]
  Mean value of scores: 3.6

## CCCCC(=O)N(Cc1ccc(-c2ccccc2-c2nnn[nH]2)cc1)[C@H](C(=O)O)C(C)C [Compound E, N-[[2′-(1H-tetrazol-5-yl)-1,1′-biphenyl-4-yl]methyl]-N-valeryl-L-valine]
[1]
  Improvement ratio (%): 33.3%
[2]
  Mean value of scores: 3.9

## CCCc1nc(C(C)(C)O)c(C(=O)O)n1Cc1ccc(-c2ccccc2-c2nnn[nH]2)cc1.O [Compound F, 4-(1-hydroxy-1-methylethyl)-2-n-propyl-1-[[2′-(1H-tetrazol-5-yl)-1,1′-biphenyl-4-yl]methyl]imidazol-5-carboxylic acid monohydrate]
0.004% in phosphate-buffered saline, vs phosphate-buffered saline control, Table 3
  Improvement ratio (%): 65.9%
0.004% in phosphate-buffered saline, Table 3 (normal eye 2.2, control 6.3)
  Mean value of scores: 3.6
